The target in data set [1] is Cholinesterase (Equus caballus) (UniProt P81908). The data set can be described thus: Inhibition of equine serum BChE using butyrylthiocholine iodide as substrate at 10^-4 M preincubated for 15 mins followed by substrate addition and measured for 5 mins by Ellmans method. (In general: In Ellman's method for cholinesterases, released thiocholine reacts with DTNB.)
Data set [2] has the same target. Nature of the data set: Inhibition of equine serum BChE using butyrylthiocholine iodide as substrate at 10^-3 M preincubated for 15 mins followed by substrate addition and measured for 5 mins by Ellmans method.
Data set [3] concerns the target Acetylcholinesterase (Electrophorus electricus, UniProt O42275). The data set can be described thus: Inhibition of electric eel AChE using acetylthiocholine iodide as substrate preincubated for 15 mins followed by substrate addition and measured for 5 mins by Ellmans method.
The nature of data set [4]: Cytotoxicity against mouse NIH/3T3 cells after 24 hrs by MTT assay. The format is toxicity, NIH3T3. Background: Formazan colour is commonly taken as a measure of viable cells.
Data set [5] can be described thus: Selectivity index, ratio of IC50 for mouse NIH/3T3 cells to IC50 for electric eel AChE.

The structures appear in SMILES notation.

The results in this text go back to ChEMBL document CHEMBL3875179 (Eur J Med Chem, 2016).

Cholinesterase (Equus caballus), sequence (P81908 whole entry): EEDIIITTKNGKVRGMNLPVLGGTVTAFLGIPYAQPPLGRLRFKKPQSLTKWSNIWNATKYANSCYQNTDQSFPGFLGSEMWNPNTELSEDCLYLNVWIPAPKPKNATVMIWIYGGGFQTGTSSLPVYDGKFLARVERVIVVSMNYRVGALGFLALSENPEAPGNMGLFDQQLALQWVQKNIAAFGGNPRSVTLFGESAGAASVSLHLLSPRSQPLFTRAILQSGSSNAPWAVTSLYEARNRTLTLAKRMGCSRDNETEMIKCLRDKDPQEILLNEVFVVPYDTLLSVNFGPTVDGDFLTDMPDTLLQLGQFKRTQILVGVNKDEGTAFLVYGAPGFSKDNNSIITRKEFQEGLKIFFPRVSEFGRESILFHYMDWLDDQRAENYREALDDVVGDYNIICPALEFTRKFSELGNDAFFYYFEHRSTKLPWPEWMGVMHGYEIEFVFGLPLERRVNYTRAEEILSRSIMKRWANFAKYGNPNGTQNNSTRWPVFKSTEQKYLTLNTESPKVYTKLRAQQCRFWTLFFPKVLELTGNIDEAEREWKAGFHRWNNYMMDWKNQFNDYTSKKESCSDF
Acetylcholinesterase, sequence (O42275 whole entry): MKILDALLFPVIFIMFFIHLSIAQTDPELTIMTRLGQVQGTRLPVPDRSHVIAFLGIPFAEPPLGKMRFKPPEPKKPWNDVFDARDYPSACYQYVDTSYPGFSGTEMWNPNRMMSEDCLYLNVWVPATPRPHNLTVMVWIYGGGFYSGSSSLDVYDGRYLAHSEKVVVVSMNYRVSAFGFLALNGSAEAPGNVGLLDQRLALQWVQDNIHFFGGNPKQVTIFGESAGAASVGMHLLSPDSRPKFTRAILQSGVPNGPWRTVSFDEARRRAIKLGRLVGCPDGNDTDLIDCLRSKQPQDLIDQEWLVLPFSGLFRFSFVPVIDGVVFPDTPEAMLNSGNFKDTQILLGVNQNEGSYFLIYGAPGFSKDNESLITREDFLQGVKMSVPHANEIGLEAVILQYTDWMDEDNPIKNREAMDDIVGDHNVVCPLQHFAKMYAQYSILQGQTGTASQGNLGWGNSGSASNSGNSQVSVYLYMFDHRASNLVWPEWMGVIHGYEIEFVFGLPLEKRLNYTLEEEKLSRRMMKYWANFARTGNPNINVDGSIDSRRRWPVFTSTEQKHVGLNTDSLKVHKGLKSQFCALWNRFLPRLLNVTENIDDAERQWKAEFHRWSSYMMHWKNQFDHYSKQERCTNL

Broadly, the inhibition is the drop in the measured response relative to a control, in per cent. A lower inhibition goes with a weak effect. For `COc1ccc2nc(NC(=O)CN3CCC(CC4Cc5cc(OC)c(OC)cc5C4=O)CC3)sc2c1` (configuration not stated), the inhibition was determined as 3.19% in data set [1] and 5.33% in data set [2].

Regarding `COc1ccc2c(c1)C(=O)/C(=C\c1ccc(N3CCN(CCO)CC3)cc1)C2`, the inhibition in data set [1] amounted to 1.25%; in data set [2], 3.45%.

With `COc1cc2c(cc1OC)C(=O)C(CC1CCN(CC(=O)Nc3nc4ccc([N+](=O)[O-])cc4s3)CC1)C2` (configuration not stated), the inhibition in data set [1] is 1.13%; in data set [2], 4.18%.

Take `COc1ccc2c(c1)C/C(=C/c1ccc(N3CCCC3)cc1)C2=O`: the inhibition came out at 1.25% in data set [1] and 3.08% in data set [2].

In the case of `COc1ccc2c(c1)C(=O)/C(=C\c1ccc(N3CCCC3)cc1)C2`, the inhibition in data set [1] was found to be 3.18%; in data set [2] it was 5.7%.

`COc1cc2c(cc1OC)C(=O)/C(=C\c1ccc(N3CCCC3)cc1)C2`: the values for the inhibition in data set [1] and in data set [2] were 2.77% and 4.98%, respectively.

With `COc1cc2c(cc1OC)C(=O)/C(=C\c1ccc(N3CCN(C)CC3)cc1)C2`, the inhibition in data set [1] is 8.55%; in data set [2], 19.2%.

A word on the IC50: it is the midpoint of a concentration-inhibition curve. For the compound `COc1ccc2c(c1)C/C(=C/c1ccc(N3CCN(CCCN(C)C)CC3)cc1)C2=O`, the inhibition in data set [1] was found to be 11.3%; in data set [2] it was 16%. This compound came in with an IC50 in data set [3] of 8.54 µM. Moreover, the IC50 at 24 h in data set [4] was determined as 230 µM. Besides, the “Ratio IC50” value in data set [5] was 27.

For `CCN1CCN(c2ccc(/C=C3/Cc4ccc(OC)cc4C3=O)cc2)CC1`, the results for the inhibition in data set [1] and in data set [2] were 4.2% and 5.05%, respectively.

On to `COc1cc2c(cc1OC)C(=O)C(CC1CCN(CC(=O)Nc3ccc(C)cc3)CC1)C2` (configuration not stated), for which the inhibition came out at 3.2% in data set [1] and 5.89% in data set [2].

With `COc1ccc2c(c1)C(=O)/C(=C\c1ccc(N3CCN(CCN(C)C)CC3)cc1)C2`, the inhibition stood at 10.6% in data set [1] and 17.2% in data set [2].

In the case of `COc1cc2c(cc1OC)C(=O)C(CC1CCN(CC(=O)Nc3nc4ccc(F)cc4s3)CC1)C2` (configuration not stated), the inhibition in data set [1] came to 3.1%; in data set [2] it was 4.89%.

Consider `COc1cc2c(cc1OC)C(=O)C(CC1CCN(CC(=O)Nc3ccc(Cl)cc3)CC1)C2` (configuration not stated), for which the inhibition in data set [1] amounted to 2.77%; in data set [2], 5.39%.

With `COc1ccc(NC(=O)CN2CCC(CC3Cc4cc(OC)c(OC)cc4C3=O)CC2)cc1OC` (configuration not stated), the results for the inhibition in data set [1] and in data set [2] were 1.29% and 5.85%, respectively.

As to `COc1ccc(NC(=O)CN2CCC(CC3Cc4cc(OC)c(OC)cc4C3=O)CC2)cc1` (configuration not stated), the inhibition was determined as 1.33% in data set [1] and 4.28% in data set [2].

Turning to `COc1ccc2c(c1)C(=O)/C(=C\c1ccc(N3CCN(CCCN(C)C)CC3)cc1)C2`, the results for the inhibition in data set [1] and in data set [2] were 10.1% and 16.1%, respectively. Further, in data set [3], the half-maximal inhibitory concentration (IC50) was 6.06 µM. Besides, the IC50 at 24 h in data set [4] amounted to 78 µM. In addition, the “Ratio IC50” value in data set [5] is reported as 13.

As to `COc1cc2c(cc1OC)C(=O)C(CC1CCN(CC(=O)Nc3nc4ccccc4s3)CC1)C2` (configuration not stated), the inhibition was determined as 2.31% in data set [1] and 5.23% in data set [2].

`COc1cc2c(cc1OC)C(=O)C(CC1CCN(CC(=O)Nc3ccccc3)CC1)C2` (configuration not stated): the figures for the inhibition in data set [1] and in data set [2] were 2.58% and 5%, respectively.

With `CCN(CC)c1ccc(/C=C2/Cc3cc(OC)ccc3C2=O)cc1`, the inhibition in data set [1] amounted to 5.27%; in data set [2], 10.3%.

As for `COc1cc2c(cc1OC)C(=O)/C(=C\c1ccc(N3CCN(CCO)CC3)cc1)C2`, the inhibition in data set [1] was found to be 7.55%; in data set [2], 18.2%.

Take `CCN1CCN(c2ccc(/C=C3/Cc4cc(OC)c(OC)cc4C3=O)cc2)CC1`: the inhibition in data set [1] came out at 8.56%; in data set [2] it was 16.9%.

In the case of `CCN1CCN(c2ccc(/C=C3/Cc4cc(OC)ccc4C3=O)cc2)CC1`, the inhibition stood at 8.77% in data set [1] and 15.1% in data set [2].

Regarding `COc1ccc2c(c1)C/C(=C/c1ccc(N3CCN(CCO)CC3)cc1)C2=O`, the results for the inhibition in data set [1] and in data set [2] were 5.91% and 7.63%, respectively.

Turning to `COc1cc2c(cc1OC)C(=O)C(CC1CCN(CC(=O)Nc3nc4ccc(Cl)cc4s3)CC1)C2` (configuration not stated), the inhibition in data set [1] is 3.09%; in data set [2], 6.21%.

For the compound `COc1cc2c(cc1OC)C(=O)/C(=C\c1ccc(N3CCN(CCCN(C)C)CC3)cc1)C2`, the inhibition in data set [1] came out at 13.9%; in data set [2], 18.7%. Besides, in data set [3], half-maximal inhibition (IC50) required 4.89 µM. This compound also came in with an IC50 at 24 h in data set [4] of 78 µM.

On to `COc1cc2c(cc1OC)C(=O)C(CC1CCN(CC(=O)Nc3ccc(F)cc3)CC1)C2` (configuration not stated), for which the inhibition in data set [1] is 1.99%; in data set [2], 4.75%.

As for `CCN(CC)c1ccc(/C=C2/Cc3ccc(OC)cc3C2=O)cc1`, the figures for the inhibition in data set [1] and in data set [2] were 1.65% and 2.8%, respectively.

As for `COc1cc2c(cc1OC)C(=O)/C(=C\c1ccc(N3CCN(CCN(C)C)CC3)cc1)C2`, the results for the inhibition in data set [1] and in data set [2] were 12.1% and 17%, respectively. Also, the midpoint of inhibition in data set [3], the IC50, lay at 6.38 µM. 320 µM corresponded to half-maximal inhibition in data set [4] (IC50 at 24 h). Moreover, in data set [5], the “Ratio IC50” value amounted to 50.

Take `COc1ccc2c(c1)C/C(=C/c1ccc(N3CCN(c4ccccc4)CC3)cc1)C2=O`: the inhibition in data set [1] is 2.38%; in data set [2], 5.2%.

For `COc1cc2c(cc1OC)C(=O)C(CC1CCN(CC(=O)Nc3nc4ccc(C)cc4s3)CC1)C2` (configuration not stated), the inhibition in data set [1] came out at 2.08%; in data set [2], 4.29%.

For the compound `COc1cc2c(cc1OC)C(=O)C(CC1CCN(CC(=O)Nc3ccc([N+](=O)[O-])cc3)CC1)C2` (configuration not stated), the results for the inhibition in data set [1] and in data set [2] were 2.69% and 4.88%, respectively.

`COc1cc2c(cc1OC)C(=O)C(CC1CCN(CC(=O)Nc3nc4cc(OC)c(OC)cc4s3)CC1)C2` (configuration not stated): the inhibition in data set [1] worked out at 2.05%; in data set [2], 3.77%.

Consider `COc1ccc2c(c1)C(=O)/C(=C\c1ccc(N3CCN(c4ccccc4)CC3)cc1)C2`, for which the inhibition in data set [1] came out at 1.06%; in data set [2], 1.73%.

For the compound `COc1cc2c(cc1OC)C(=O)/C(=C\c1ccc(N3CCN(c4ccccc4)CC3)cc1)C2`, the inhibition was found to be 1.08% in data set [1] and 3.22% in data set [2].

As for `CCN(CC)c1ccc(/C=C2/Cc3cc(OC)c(OC)cc3C2=O)cc1`, the inhibition amounted to 1.96% in data set [1] and 3.76% in data set [2].

With `COc1ccc2c(c1)C(=O)/C(=C\c1ccc(N3CCN(C)CC3)cc1)C2`, the inhibition in data set [1] worked out at 9.63%; in data set [2], 14.7%.

In the case of `COc1ccc2c(c1)C/C(=C/c1ccc(N3CCN(CCN(C)C)CC3)cc1)C2=O`, the figures for the inhibition in data set [1] and in data set [2] were 9.56% and 15.2%, respectively.

In the case of `COc1ccc2c(c1)C/C(=C/c1ccc(N3CCN(C)CC3)cc1)C2=O`, the inhibition was 7.56% in data set [1] and 12.9% in data set [2].
